Assay results as given in patent US20260241046A1, “PROSTATE-SPECIFIC MEMBRANE ANTIGEN RECEPTOR-TARGETING RADIOPHARMACEUTICALS AND USES THEREOF” (Nuclidium AG, priority 2024, published 2026).
Where “and” joins values, the source holds several entries; their conditions need not be identical. Equal entries are not always repeated. Entries after “also recorded” stand apart in the source; their conditions may differ.

Experiments:
PSMA-expressing tumors = molecular target: T1, PSMA-expressing tumors (Homo sapiens, UniProt Q04609); experiment: First-in-human PET/CT study; type: in vivo; conditions: 104 MBq i.v., imaging at 3 hours, patient with metastatic prostate cancer
T1 construct: administered intravenously to a patient with known metastatic prostate cancer; from tissue; host or cells: osseous and hepatic metastases of a patient with metastatic prostate cancer
T1 sequence (Q04609 whole entry): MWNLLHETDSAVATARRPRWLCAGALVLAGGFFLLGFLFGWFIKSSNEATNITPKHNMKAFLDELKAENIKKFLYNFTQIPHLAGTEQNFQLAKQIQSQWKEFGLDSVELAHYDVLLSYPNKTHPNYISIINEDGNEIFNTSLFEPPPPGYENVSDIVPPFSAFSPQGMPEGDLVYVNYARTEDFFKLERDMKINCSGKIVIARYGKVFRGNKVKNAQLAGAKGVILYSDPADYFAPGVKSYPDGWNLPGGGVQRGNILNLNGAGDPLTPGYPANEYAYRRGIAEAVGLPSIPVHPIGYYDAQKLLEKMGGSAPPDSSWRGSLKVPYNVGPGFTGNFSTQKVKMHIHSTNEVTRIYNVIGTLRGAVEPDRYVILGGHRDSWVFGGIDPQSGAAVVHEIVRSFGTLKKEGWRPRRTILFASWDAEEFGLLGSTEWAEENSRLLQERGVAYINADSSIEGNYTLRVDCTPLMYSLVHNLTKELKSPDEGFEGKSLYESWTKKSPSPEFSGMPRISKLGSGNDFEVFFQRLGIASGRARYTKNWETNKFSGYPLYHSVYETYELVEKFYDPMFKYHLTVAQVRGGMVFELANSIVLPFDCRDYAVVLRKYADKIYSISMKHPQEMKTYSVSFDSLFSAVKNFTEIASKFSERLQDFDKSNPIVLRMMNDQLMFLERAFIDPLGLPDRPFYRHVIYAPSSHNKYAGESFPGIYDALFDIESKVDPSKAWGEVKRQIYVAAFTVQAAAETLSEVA
Method: A [^61Cu]Cu-NODAGA-PSMA I&T dose of 104 MBq (2.81 mCi) was administered intravenously to a patient with known metastatic prostate cancer. The patient was co-injected with 10 mg furosemide (Lasix®, Sanofi-Aventis, Frankfurt, Germany).
Imaging was performed at 3 hours following radiotracer administration on a Biograph Vision 600 (Siemens, Germany) PET/CT scanner. Images were obtained from the skull to mid-thigh and reconstructed into multiplanar PT, CT, and fused PET/CT images. CT was used for attenuation correction.

[1] = Lipophilicity log D (pH 7.4), shake-flask method; type: physicochemical; conditions: 1-octanol / PBS pH 7.4
Method: The lipophilic/hydrophilic character of [^61Cu]Cu-NODAGA-PSMA I&T was assessed by the determination of the distribution coefficient (D), expressed as log D at physiological pH (log D (pH 7.4)), between an aqueous and an organic phase following the “shake-flask” method. [^61Cu]Cu-NODAGA-PSMA I&T (1 μM) was added to a 50:50 pre-saturated mixture solution of 1-octanol and phosphate-buffered saline (PBS pH 7.4). The mixture was vortexed for 30 min and then centrifuged at 3000 rpm to achieve phase separation. Aliquots from each phase were collected and measured in a gamma counter. The distribution coefficient was calculated as the average logarithmic values of the ratio between the radioactivity in the organic and the PBS phase.

[2] = Dosimetry calculations (OLINDA/EXM 1.0, extrapolated human dose)
Text: The data from the pharmacokinetic studies (Table 26) was decay-corrected using the half-life of ^61Cu to extrapolate the human dose. Since there were no measurements of the radioactivity accumulation in red marrow, this was estimated assuming a linear relationship between the blood and the red marrow residence times. The proportionality factor used was the ratio between the red marrow mass and human blood mass. The residence time (RT) for the stomach was approximated to be equal to the RT of the stomach wall since the animals were subjected to fasting before the biodistribution experiments. The heart was emptied from blood before measurements, and it was assumed that the total measured heart uptake was associated with the heart wall.
OLINDA/EXM 1.0 was used to integrate the fitted time-activity curves and to estimate the organ and effective doses using standard human whole-body adult female and male phantom models. Since the salivary glands are PSMA-positive and the organ is not included in the phantom, the dose absorbed was calculated separately, assuming that the weight of the human salivary gland is 30 g.

LNCaP cells = experiment: In vitro efflux rate; type: cell-based, human; conditions: for Cell-associated fraction, With competitor: 100-fold excess DOTAGA-PSMA I&T
Method: Efflux-rate assays were performed on 6-well plates pre-treated with poly-L-lysine to promote adhesion. The plated cells were incubated with [^61Cu]Cu-NODAGA-PSMA I&T (100 μL, 0.5 nM) at 37° C. For non-specific uptake measurement, 100 μL of 2-PMPA (10 μM) was added to some wells. After 1 h, the cell-released fraction was collected by removing the medium and washing it twice with PBS. Then, the cells were incubated at 37° C. in a fresh medium for up to 180 min. At each time point, the medium was removed and replaced by fresh pre-warmed (37° C.) medium. At the end of the experiment, the cells were detached with 1 M sodium hydroxide and collected to determine the remaining cell-binding [^61Cu]Cu-NODAGA-PSMA I&T. The different fractions were quantified using a γ-counter (Cobra II, Packard A Canberra) and represented as a percentage of the applied radioactivity.
The experiment was also performed in the presence of a competitor (100-fold excess DOTAGA-PSMA I&T) to obtain a “rebinding free” system. The presence of the competitor prevented any rebinding of [^61Cu]Cu-NODAGA-PSMA I&T that dissociates faster. The values were calculated as a percentage of the cell-associated fraction (surface-bound and internalized fraction), subtracting the non-specific uptake (measured in the presence of 10 μM 2-PMPA).

SMILES: O=C([O-])CN1CCN(CC(=O)[O-])CCN([C@H](CCC(=O)N[C@H](Cc2ccc(O)c(I)c2)C(=O)N[C@H](Cc2ccccc2)C(=O)N[C@H](CCCCNC(=O)CCCCCCC(=O)NCCCC[C@H](NC(=O)N[C@@H](CCC(=O)O)C(=O)O)C(=O)O)C(=O)O)C(=O)O)CC1.[61Cu+2] [[^61Cu]Cu-NODAGA-PSMA I&T]
- radiotracer accumulation on PET/CT (PSMA-expressing tumors): multifocal osseous (arrows) and hepatic (arrowheads) metastases; also recorded: Radiotracer accumulation was noted in multifocal osseous and hepatic metastases
- log D (pH 7.4) [1]: −2.95±0.08
- Effective Dose ([2]; Female): 0.0095 mSv/MBq and 9.54E−03 mSv/MBq
- Total absorbed dose, Adrenals ([2]; Female): 9.86E−02 mGy/MBq
- Total absorbed dose, Brain ([2]; Female): 5.59E−05 mGy/MBq
- Total absorbed dose, Breasts ([2]; Female): 1.23E−03 mGy/MBq
- Total absorbed dose, Gallbladder Wall ([2]; Female): 1.37E−02 mGy/MBq
- Total absorbed dose, Heart Wall ([2]; Female): 5.03E−03 mGy/MBq
- Total absorbed dose, Kidneys ([2]; Female): 1.00E+00 mGy/MBq
- Total absorbed dose, LLI Wall ([2]; Female): 3.24E−03 mGy/MBq
- Total absorbed dose, Liver ([2]; Female): 1.83E−02 mGy/MBq
- Total absorbed dose, Lungs ([2]; Female): 4.86E−03 mGy/MBq
- Total absorbed dose, Muscle ([2]; Female): 4.03E−03 mGy/MBq
- Total absorbed dose, Osteogenic Cells ([2]; Female): 3.93E−03 mGy/MBq
- Total absorbed dose, Ovaries ([2]; Female): 4.76E−03 mGy/MBq
- Total absorbed dose, Pancreas ([2]; Female): 3.18E−02 mGy/MBq
- Total absorbed dose, Red Marrow ([2]; Female): 6.94E−03 mGy/MBq
- Total absorbed dose, Skin ([2]; Female): 1.82E−03 mGy/MBq
- Total absorbed dose, Small Intestine ([2]; Female): 2.78E−02 mGy/MBq
- Total absorbed dose, Spleen ([2]; Female): 5.65E−02 mGy/MBq
- Total absorbed dose, Stomach Wall ([2]; Female): 1.08E−02 mGy/MBq
- Total absorbed dose, Thymus ([2]; Female): 1.11E−03 mGy/MBq
- Total absorbed dose, Thyroid ([2]; Female): 2.72E−04 mGy/MBq
- Total absorbed dose, Total Body ([2]; Female): 9.46E−03 mGy/MBq
- Total absorbed dose, ULI Wall ([2]; Female): 9.78E−03 mGy/MBq
- Total absorbed dose, Urinary Bladder Wall ([2]; Female): 1.60E−03 mGy/MBq
- Total absorbed dose, Uterus ([2]; Female): 3.94E−03 mGy/MBq
- Effective Dose ([2]; Male): 0.0142 mSv/MBq and 1.42E−02 mSv/MBq
- Total absorbed dose, Adrenals ([2]; Male): 8.39E−02 mGy/MBq
- Total absorbed dose, Brain ([2]; Male): 6.18E−05 mGy/MBq
- Total absorbed dose, Gallbladder Wall ([2]; Male): 2.30E−02 mGy/MBq
- Total absorbed dose, Heart Wall ([2]; Male): 6.94E−03 mGy/MBq
- Total absorbed dose, Kidneys ([2]; Male): 1.74E+00 mGy/MBq
- Total absorbed dose, LLI Wall ([2]; Male): 4.64E−03 mGy/MBq
- Total absorbed dose, Liver ([2]; Male): 2.51E−02 mGy/MBq
- Total absorbed dose, Lungs ([2]; Male): 6.11E−03 mGy/MBq
- Total absorbed dose, Muscle ([2]; Male): 6.00E−03 mGy/MBq
- Total absorbed dose, Osteogenic Cells ([2]; Male): 5.31E−03 mGy/MBq
- Total absorbed dose, Pancreas ([2]; Male): 4.83E−02 mGy/MBq
- Total absorbed dose, Red Marrow ([2]; Male): 1.11E−02 mGy/MBq
- Total absorbed dose, Skin ([2]; Male): 2.90E−03 mGy/MBq
- Total absorbed dose, Small Intestine ([2]; Male): 3.79E−02 mGy/MBq
- Total absorbed dose, Spleen ([2]; Male): 7.37E−02 mGy/MBq
- Total absorbed dose, Stomach Wall ([2]; Male): 1.71E−02 mGy/MBq
- Total absorbed dose, Testes ([2]; Male): 5.39E−04 mGy/MBq
- Total absorbed dose, Thymus ([2]; Male): 1.67E−03 mGy/MBq
- Total absorbed dose, Thyroid ([2]; Male): 4.99E−04 mGy/MBq
- Total absorbed dose, Total Body ([2]; Male): 1.38E−02 mGy/MBq
- Total absorbed dose, ULI Wall ([2]; Male): 1.43E−02 mGy/MBq
- Total absorbed dose, Urinary Bladder Wall ([2]; Male): 2.06E−03 mGy/MBq
- absorbed dose in the kidneys ([2]; after injecting 100-150 MBq): 0.17-0.26 Gy
- Cell-associated fraction, Without competitor (LNCaP cells; 10 min): 83.8 ± 0.7%
- Cell-associated fraction, With competitor (LNCaP cells; 10 min): 67.9 ± 1.1%
- Cell-associated fraction, Without competitor (LNCaP cells; 20 min): 73.5 ± 0.8%
- Cell-associated fraction, With competitor (LNCaP cells; 20 min): 54.4 ± 0.7%
- Cell-associated fraction, Without competitor (LNCaP cells; 30 min): 65.2 ± 1.4%
- Cell-associated fraction, With competitor (LNCaP cells; 30 min): 46.5 ± 0.4%
- Cell-associated fraction, Without competitor (LNCaP cells; 45 min): 57.0 ± 2.8%
- Cell-associated fraction, With competitor (LNCaP cells; 45 min): 39.9 ± 0.6%
- Cell-associated fraction, Without competitor (LNCaP cells; 60 min): 51.3 ± 3.3%
- Cell-associated fraction, With competitor (LNCaP cells; 60 min): 35.9 ± 0.9%
- Cell-associated fraction, Without competitor (LNCaP cells; 90 min): 45.0 ± 3.3%
- Cell-associated fraction, With competitor (LNCaP cells; 90 min): 29.9 ± 1.1%
- Cell-associated fraction, Without competitor (LNCaP cells; 120 min): 40.0 ± 3.5%
- Cell-associated fraction, With competitor (LNCaP cells; 120 min): 25.0 ± 0.5%
- Cell-associated fraction, Without competitor (LNCaP cells; 150 min): 35.4 ± 3.1%
- Cell-associated fraction, With competitor (LNCaP cells; 150 min): 20.9 ± 0.4%
- Cell-associated fraction, Without competitor (LNCaP cells; 180 min): 31.5 ± 2.5%
- Cell-associated fraction, With competitor (LNCaP cells; 180 min): 17.5 ± 0.5%
